The record followed here is patent US20240208950A1, “COMPOSITIONS AND METHODS FOR TREATMENT OF CERVICAL AND OVARIAN CANCER” (SOUTH DAKOTA BOARD OF REGENTS, priority 2021, published 2024).

The test system of this test is ovarian cancer cell line A2780. Description: MTT cell viable assay (cytotoxicity and anti-proliferation). The class given is cell-based. The conditions noted are these: Homo sapiens. As to the method: A biological assay was performed to study the potency of ORM-analogs by observing their pharmaceutical effects on living tissue (in vitro) and the effects of these analogs of unknown potency were compared to the effects of the standard (ormeloxifene). An MTT cell viable assay was first conducted to measure the cytotoxicity and anti-proliferation activity of synthesized analogs (Table 2 and FIG. 2).

Broadly, the IC50 is the concentration at which inhibition is half-maximal.

Molecule `COc1ccc2c(c1)OC(C)(C)C(c1ccc(Br)cc1)C2c1ccc(OCCN2CCCC2)cc1` (stereo not shown) [ORM-Br] registered an IC50 of 11.2 µM.
